# Like-named read-outs stand apart in the source and are kept apart here.
# Legend:
# [1] = tested on: MCF10A_HER2/insYVMA_v human mammary epithelial xenografts; assay: antitumor effect in nude mice bearing MCF10A_HER2/insYVMA_v xenografts; type: in vivo; conditions: for T/C ratio of the mean tumor volume: Day 15
# Experimental: The antitumor effect of Compound (1) was evaluated in a nude mouse xenograft model of MCF10A_HER2/insYVMA_v. MCF10A_HER2/insYVMA_v was established as stably growing cells in vivo derived from MCF10A HER2/insYVMA (a human mammary epithelial cell line engineered to express the HER2 exon 20 insertion mutation A775_G776insYVMA) xenografts subcutaneously transplanted into nude mice. Compound (1) suspensions (using 0.5% w/v HPMC as vehicle) were administered orally once daily to mice at doses of 7.8, 12.5, or 20.0 mg/kg/day for 14 days. The control group received 0.5% weight per volume (w/v) hydroxypropyl methylcellulose (HPMC) solution orally once daily for 14 days.
# In addition, the antitumor effect of poziotinib (an irreversible inhibitor of EGFR, HER2, and HER4) was also evaluated using this model.
# NCI-H1975 cells = assay: growth inhibitory effect in human cancer cell lines (GI50); type: cell-based; conditions: lung cancer, EGFR L858R and T790M
# From the text: (§1) Wild-type EGFR gene amplification without HER2 amplification has been observed in A-431 cells. HCC827 cells (lung cancer) have been reported as harboring an EGFR activating mutation (DelE746_A750). NCI-H1975 cells (lung cancer) have been reported as having activating and acquired EGFR resistance mutations (L858R and T790M).
# A-431 cells = assay: as above; type: cell-based; conditions: wild-type EGFR gene amplification
# From the text: as §1
# HCC827 cells = assay: as above; type: cell-based; conditions: lung cancer, EGFR DelE746_A750
# From the text: as §1
# human BCRP [2] = target: T1, human BCRP (Homo sapiens, UniProt Q9UNQ0); assay: inhibitory effect on human BCRP, bidirectional transport of [^3H]prazosin
# T1 sequence (Q9UNQ0 1-655): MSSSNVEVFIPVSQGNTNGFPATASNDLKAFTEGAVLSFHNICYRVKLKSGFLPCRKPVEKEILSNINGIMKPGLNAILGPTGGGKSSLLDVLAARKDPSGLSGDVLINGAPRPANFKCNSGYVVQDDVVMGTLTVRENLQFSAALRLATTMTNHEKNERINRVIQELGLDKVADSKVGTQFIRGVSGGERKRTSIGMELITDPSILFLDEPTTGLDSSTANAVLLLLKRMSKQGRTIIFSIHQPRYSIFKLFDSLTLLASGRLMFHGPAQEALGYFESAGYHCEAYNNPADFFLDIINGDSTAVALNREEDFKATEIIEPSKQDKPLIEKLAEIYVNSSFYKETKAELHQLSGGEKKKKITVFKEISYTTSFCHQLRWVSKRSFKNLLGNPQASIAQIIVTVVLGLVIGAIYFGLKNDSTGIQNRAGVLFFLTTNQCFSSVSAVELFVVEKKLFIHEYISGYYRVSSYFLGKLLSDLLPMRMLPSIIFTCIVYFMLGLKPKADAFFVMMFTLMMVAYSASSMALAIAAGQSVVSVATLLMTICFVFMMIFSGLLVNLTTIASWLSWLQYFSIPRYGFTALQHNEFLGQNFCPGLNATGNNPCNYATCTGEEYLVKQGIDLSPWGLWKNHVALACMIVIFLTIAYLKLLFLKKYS
# [3] = tested on: MCF10A_HER2/insYVMA cells; assay: growth inhibitory effect in human cancer cell lines (GI50); type: cell-based; conditions: engineered to express HER2 A775_G776insYVMA
# [4] = pharmacokinetics after multiple oral administration for 7 days; type: in vivo, male nude mice; conditions: for AUC(0-t): male, nude, mouse, plasma, read-out: AUC0-24
# Experimental: Compound (1) was orally administered. The concentrations of Compound (1) were quantified using LC-MS/MS for the PK studies. ^13C-labeled Compound (1) was used as an internal standard.
# Pharmacokinetics in nude mice after multiple oral administration for 7 days. Plasma concentration profiles and PK parameters of Compound (1) on Day 7 were determined in male nude mice after once daily oral administrations for 7 days at doses of 6.25, 12.5, and 25 mg/kg (FIGS. 5A and 5B, and Table 5). The Cmax, AUClast, and AUC0-24 values increased in a dose-dependent manner.
# human BCRP [5] = target: T1, human BCRP; conditions: not told
# 257 kinases = assay: panel enzyme assay of 257 kinases, whole panel; type: biochemical; conditions: 1000 nmol/L
# Experimental: To investigate further kinase selectivity of Compound (1), a panel enzyme assay of 257 kinases for Compound (1) was conducted.
# HER2 = HER2 (Homo sapiens, UniProt P04626); assay: in vitro kinase assay (enzyme assay); type: biochemical; conditions: human recombinant enzyme; read-out: IC50 (Mean ± SD)
# Experimental: (§2) To investigate the inhibitory effect of Compound (1) on HER2 enzyme activity, the mean±standard deviation (SD) of half-maximal inhibitory concentration (IC50) values of Compound (1) against human recombinant enzymes of HER2 and its mutants were determined by in vitro kinase assays (Table 1).
# HER2 V777L = HER2 V777L (Homo sapiens, UniProt P04626, V777L); assay: in vitro kinase assay (enzyme assay); type: biochemical; conditions: human recombinant enzyme; read-out: IC50 (Mean ± SD)
# Experimental: as §2
# HER2 A775_G776insYVMA = HER2 A775_G776insYVMA (Homo sapiens, UniProt P04626, INS775YVMA); assay: in vitro kinase assay (enzyme assay); type: biochemical; conditions: human recombinant enzyme; read-out: IC50 (Mean ± SD)
# Experimental: as §2
# [6] = Day 7, once daily oral 6.25 mg/kg for 7 days
# [7] = Day 7, once daily oral 12.5 mg/kg for 7 days
# [8] = Day 7, once daily oral 25 mg/kg for 7 days
# Sequence of HER2 V777L (P04626 23-1255 V777L): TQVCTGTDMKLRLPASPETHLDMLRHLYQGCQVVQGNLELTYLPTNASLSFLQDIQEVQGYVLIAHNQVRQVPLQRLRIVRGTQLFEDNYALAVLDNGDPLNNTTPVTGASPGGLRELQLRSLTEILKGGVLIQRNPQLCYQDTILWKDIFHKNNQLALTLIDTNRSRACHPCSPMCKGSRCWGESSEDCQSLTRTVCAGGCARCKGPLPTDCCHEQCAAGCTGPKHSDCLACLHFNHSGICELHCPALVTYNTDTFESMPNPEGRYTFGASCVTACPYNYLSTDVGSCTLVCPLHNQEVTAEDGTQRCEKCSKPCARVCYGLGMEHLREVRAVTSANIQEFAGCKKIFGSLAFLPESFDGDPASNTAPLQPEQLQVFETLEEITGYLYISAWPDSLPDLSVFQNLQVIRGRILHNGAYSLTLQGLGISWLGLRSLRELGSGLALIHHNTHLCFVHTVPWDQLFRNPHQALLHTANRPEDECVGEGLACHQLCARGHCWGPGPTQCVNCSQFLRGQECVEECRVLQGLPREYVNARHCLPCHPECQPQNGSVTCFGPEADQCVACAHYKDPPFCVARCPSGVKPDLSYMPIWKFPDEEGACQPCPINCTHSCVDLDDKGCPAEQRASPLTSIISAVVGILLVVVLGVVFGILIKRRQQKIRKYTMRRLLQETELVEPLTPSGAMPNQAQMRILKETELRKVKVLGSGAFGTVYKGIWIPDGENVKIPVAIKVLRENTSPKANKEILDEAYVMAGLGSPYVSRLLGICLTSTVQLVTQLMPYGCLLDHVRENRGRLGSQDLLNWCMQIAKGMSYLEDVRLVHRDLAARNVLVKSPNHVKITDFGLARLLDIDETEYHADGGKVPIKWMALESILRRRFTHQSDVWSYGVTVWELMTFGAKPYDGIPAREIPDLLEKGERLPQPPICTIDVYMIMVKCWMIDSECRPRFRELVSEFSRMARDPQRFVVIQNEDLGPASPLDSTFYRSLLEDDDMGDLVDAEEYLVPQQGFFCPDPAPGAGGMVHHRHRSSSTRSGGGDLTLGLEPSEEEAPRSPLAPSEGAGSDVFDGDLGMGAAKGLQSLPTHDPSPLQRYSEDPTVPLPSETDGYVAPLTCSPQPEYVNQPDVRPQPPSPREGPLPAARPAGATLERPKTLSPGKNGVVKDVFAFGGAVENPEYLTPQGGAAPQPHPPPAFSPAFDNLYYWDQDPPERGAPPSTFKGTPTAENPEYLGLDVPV
# Sequence of HER2 A775_G776insYVMA (P04626 with tags, fused parts or gaps INS775YVMA limits assumed): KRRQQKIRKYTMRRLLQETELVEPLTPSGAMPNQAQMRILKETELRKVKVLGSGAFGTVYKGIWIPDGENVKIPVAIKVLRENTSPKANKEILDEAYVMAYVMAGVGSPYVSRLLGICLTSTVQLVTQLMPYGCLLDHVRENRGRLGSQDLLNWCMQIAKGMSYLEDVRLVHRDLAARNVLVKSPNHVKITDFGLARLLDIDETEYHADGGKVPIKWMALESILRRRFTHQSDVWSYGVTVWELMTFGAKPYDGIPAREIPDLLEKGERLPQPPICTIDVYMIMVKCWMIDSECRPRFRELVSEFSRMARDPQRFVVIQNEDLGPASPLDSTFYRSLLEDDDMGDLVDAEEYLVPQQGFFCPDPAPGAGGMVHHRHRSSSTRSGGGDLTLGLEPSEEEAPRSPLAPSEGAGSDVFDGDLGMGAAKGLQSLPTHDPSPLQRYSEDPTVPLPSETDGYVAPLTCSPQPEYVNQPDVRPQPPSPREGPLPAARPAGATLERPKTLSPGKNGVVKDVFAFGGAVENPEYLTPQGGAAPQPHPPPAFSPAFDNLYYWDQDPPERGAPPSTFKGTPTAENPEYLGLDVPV
# Sequence of HER2 (P04626 23-1255): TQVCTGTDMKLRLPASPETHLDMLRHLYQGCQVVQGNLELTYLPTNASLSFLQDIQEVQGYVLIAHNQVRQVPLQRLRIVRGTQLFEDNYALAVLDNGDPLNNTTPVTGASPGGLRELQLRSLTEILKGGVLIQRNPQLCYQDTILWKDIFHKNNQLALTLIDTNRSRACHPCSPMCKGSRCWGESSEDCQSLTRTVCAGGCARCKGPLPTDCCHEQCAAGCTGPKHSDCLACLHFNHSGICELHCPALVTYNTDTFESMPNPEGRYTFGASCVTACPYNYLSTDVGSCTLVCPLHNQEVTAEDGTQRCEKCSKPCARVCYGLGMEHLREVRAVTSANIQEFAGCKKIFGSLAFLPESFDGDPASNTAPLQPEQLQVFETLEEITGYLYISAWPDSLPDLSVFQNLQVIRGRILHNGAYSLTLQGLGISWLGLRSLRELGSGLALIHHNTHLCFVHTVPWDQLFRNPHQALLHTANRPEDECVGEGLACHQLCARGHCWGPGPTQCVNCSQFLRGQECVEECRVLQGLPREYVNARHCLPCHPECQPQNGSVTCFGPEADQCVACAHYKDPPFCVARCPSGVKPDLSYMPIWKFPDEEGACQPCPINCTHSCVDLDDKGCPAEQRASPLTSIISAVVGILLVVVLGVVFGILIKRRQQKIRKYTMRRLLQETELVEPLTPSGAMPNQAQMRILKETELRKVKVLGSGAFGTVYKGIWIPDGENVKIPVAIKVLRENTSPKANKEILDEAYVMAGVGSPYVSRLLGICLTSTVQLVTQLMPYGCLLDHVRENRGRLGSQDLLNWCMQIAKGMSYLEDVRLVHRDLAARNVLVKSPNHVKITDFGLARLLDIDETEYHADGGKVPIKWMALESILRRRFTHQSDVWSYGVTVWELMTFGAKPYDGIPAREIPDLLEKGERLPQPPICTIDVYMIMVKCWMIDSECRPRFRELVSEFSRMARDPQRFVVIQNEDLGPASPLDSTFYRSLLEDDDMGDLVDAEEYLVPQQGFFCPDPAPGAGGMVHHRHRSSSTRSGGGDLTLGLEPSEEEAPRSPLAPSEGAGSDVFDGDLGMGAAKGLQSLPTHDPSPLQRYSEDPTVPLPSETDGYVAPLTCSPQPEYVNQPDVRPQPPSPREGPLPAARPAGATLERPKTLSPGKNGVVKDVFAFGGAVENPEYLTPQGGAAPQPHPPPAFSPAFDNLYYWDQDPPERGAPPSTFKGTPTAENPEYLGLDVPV
smiles,measurement,setting,value
"C=CC(=O)N1C[C@H](n2c(C#CC3CC3)c(C(=O)N[C@H](C)c3ccccc3)c3c(N)ncnc32)C[C@@H]1C [Compound (1), 7-((3R,5S)-1-acryloyl-5-methylpyrrolidin-3-yl)-4-amino-6-(cyclopropylethynyl)-N—((R)-1-phenylethyl)-7H-pyrrolo[2,3-d]pyrimidine-5-carboxamide]",T/C ratio of the mean tumor volume,[1]; 7.8 mg/kg/day orally once daily 14 days,52.8%
same,T/C ratio of the mean tumor volume,[1]; 12.5 mg/kg/day orally once daily 14 days,17.4%
same,T/C ratio of the mean tumor volume,[1]; 20.0 mg/kg/day orally once daily 14 days,8.7%
same,"toxicity (deaths, clinical signs, body weight loss ≥20%)",[1]; 14 days treatment,acceptable toxicity
same,GI50,NCI-H1975 cells,37.5 ± 20.4 nM
same,GI50,A-431 cells,8.64 ± 1.07 nM
same,GI50,HCC827 cells,2.13 ± 0.61 nM
same,IC50,human BCRP [2],332 nM
same,GI50,[3],23.3 ± 1.4 nM
same,AUClast,[4]; [6],972 ± 239 ng·h/mL
same,Cmax,[4]; [6],1170 ± 300 ng/mL
same,Tmax,[4]; [6],15 ± 0 min
same,AUC0-24,[4]; [7],2830 ± 400 ng·h/mL
same,AUClast,[4]; [7],2800 ± 460 ng·h/mL
same,Cmax,[4]; [7],2040 ± 230 ng/mL
same,Tmax,[4]; [7],19.8 ± 8.4 min
same,AUClast,[4]; [8],6180 ± 310 ng·h/mL
same,Cmax,[4]; [8],3710 ± 360 ng/mL
same,Tmax,[4]; [8],25.2 ± 8.4 min
same,AUC(0-t),[4]; [6],1030 ± 280 ng·h/mL
same,AUC(0-t),[4]; [8],6400 ± 430 ng·h/mL
same,net flux ratio of [^3H]prazosin,human BCRP [5]; 0.01 μmol/L,4.6±0.4
same,net flux ratio of [^3H]prazosin,human BCRP [5]; 0.1 μmol/L,4.0±0.3
same,net flux ratio of [^3H]prazosin,human BCRP [5]; 0.5 μmol/L,2.7±0.2
same,net flux ratio of [^3H]prazosin,human BCRP [5]; 1 μmol/L,1.8±0.2
same,net flux ratio of [^3H]prazosin,human BCRP [5]; 5 μmol/L,1.3±0.2
same,net flux ratio of [^3H]prazosin,human BCRP [5]; 10 μmol/L,1.1±0.1
same,number of the 257 kinases tested with ≥50% inhibition of activity,257 kinases,14
same,inhibition of activity for the other 243 kinases,257 kinases; weak inhibition or no inhibitory effect,< 50%
same,IC50,HER2,5.6 ± 0.3 nM
same,IC50,HER2 V777L,2.1 ± 0.8 nM
same,IC50,HER2 A775_G776insYVMA,1 ± 0.2 nM

# Source: patent US20240238300A1, “TREATMENT METHODS FOR SUBJECTS WITH CANCER HAVING AN ABERRATION IN EGFR AND/OR HER2” (TAIHO PHARMACEUTICAL CO., LTD., priority 2021, published 2024)
